Laboratory results reported in US20210009542A1 (Calico Life Sciences LLC, priority 2018, published 2021).
Where a name gives a salt, the structure may show the parent alone.

Molecular target: T1, His tagged PTPN2 (TC45) protein (Homo sapiens, UniProt P17706)
T1 construct: made in house
T1 sequence (P17706 with tags, fused parts or gaps isoform P17706-2): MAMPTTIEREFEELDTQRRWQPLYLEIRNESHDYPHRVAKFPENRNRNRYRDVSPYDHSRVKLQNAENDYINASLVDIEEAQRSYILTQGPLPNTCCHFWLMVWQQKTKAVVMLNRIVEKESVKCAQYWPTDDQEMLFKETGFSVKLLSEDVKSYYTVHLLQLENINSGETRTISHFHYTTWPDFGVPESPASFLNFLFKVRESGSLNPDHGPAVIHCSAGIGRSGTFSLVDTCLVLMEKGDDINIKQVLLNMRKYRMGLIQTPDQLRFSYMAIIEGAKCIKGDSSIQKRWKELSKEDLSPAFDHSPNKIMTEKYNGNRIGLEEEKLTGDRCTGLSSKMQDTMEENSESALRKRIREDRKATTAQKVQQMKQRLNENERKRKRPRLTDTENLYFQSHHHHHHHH
Assay: Mobility shift assay (MSA) for potency of PTPN2 inhibitors
Assay type: biochemical
Conditions: read-out: PTPN2 MSA IC50
Experimental: Compound activity was determined using in house His tagged PTPN2 (TC45) protein (SEQ ID NO: 1) in an in vitro enzymatic reaction. The enzymatic assay used to determine activity was a mobility shift assay using a LabChip EZ Reader by Caliper Life Sciences. The enzymatic reaction was carried out in assay buffer (50 mM HEPES pH 7.5, 1 mM EGTA, 10 mM EDTA, 0.01% Tween® 20, and 2 mM DTT). The compounds were dispensed on a white 384 well ProxiPlate™ (PerkinElmer Catalog #6008289) plate using the Labcyte Echo at varying concentrations (12 point, 1:3 dilution). The enzyme (at 0.5 nM) was incubated with compound for 10 minutes at room temperature. Then the substrate (phosphorylated insulin receptor probe sequence: ((OG488)-(NH—CH2—CH2—O—CH2—CH2—O—CH2—CO)-T-R-D-I-(PY)-E-T-D-Y-Y-R-K-K-NH2) (SEQ ID NO: 2) was added at […] to the plates and incubated for another 10 minutes at room temperature. Finally, a quench solution (water and 4-bromo-3-(2-oxo-2-propoxyethoxy)-5-(3-{[1-(phenylmethanesulfonyl)piperidin-4-yl]amino}phenyl)thiophene-2-carboxylic acid) was added to the plates, which were then run on the EZ Reader (excitation 488 nm, emission 530 nm) to measure % conversion (the amount of phosphorylated substrate which was de-phosphorylated by PTPN2). […] The % inhibition was then used to calculate the IC50 values.

SMILES | IC50 [nM]
N#CCCCCS(=O)(=O)N1CC=C(c2ccc3cc(O)c(N4CC(=O)NS4(=O)=O)c(F)c3c2)C1 [Compound 293, 5-{3-[8-fluoro-6-hydroxy-7-(1,1,4-trioxo-1λ^6,2,5-thiadiazolidin-2-yl)naphthalen-2-yl]-2,5-dihydro-1H-pyrrole-1-sulfonyl}pentanenitrile] | < 1
CNC(=O)CCCOc1ccc2cc(O)c(N3CC(=O)NS3(=O)=O)c(F)c2c1 [Compound 269, 4-{[8-fluoro-6-hydroxy-7-(1,1,4-trioxo-1λ^6,2,5-thiadiazolidin-2-yl)naphthalen-2-yl]oxy}-N-methylbutanamide] | 1 to 10
O=C1CN(c2c(O)cc3ccc(CCO)cc3c2F)S(=O)(=O)N1 [Compound 175, 5-[1-fluoro-3-hydroxy-7-(2-hydroxyethyl)naphthalen-2-yl]-1λ^6,2,5-thiadiazolidine-1,1,3-trione, Ammonium Salt] | 10 to 100
O=C1CN(c2c(O)cc3ccc(-c4cccnc4)cc3c2F)S(=O)(=O)N1 [Compound 266, 5-[1-fluoro-3-hydroxy-7-(pyridin-3-yl)naphthalen-2-yl]-1λ^6,2,5-thiadiazolidine-1,1,3-trione] | 1 to 10
COCCNCCOc1ccc2cc(O)c(N3CC(=O)NS3(=O)=O)c(F)c2c1 [Compound 138, 5-(1-fluoro-3-hydroxy-7-{2-[(2-methoxyethyl)amino]ethoxy}naphthalen-2-yl)-1λ^6,2,5-thiadiazolidine-1,1,3-trione] | 1 to 10
Cc1c[nH]c(-c2ccc3cc(O)c(N4CC(=O)NS4(=O)=O)c(F)c3c2)n1 [Compound 225, 5-[1-fluoro-3-hydroxy-7-(4-methyl-1H-imidazol-2-yl)naphthalen-2-yl]-1λ^6,2,5-thiadiazolidine-1,1,3-trione] | 10 to 100
CCNCCOc1ccc2cc(O)c(N3CC(=O)NS3(=O)=O)c(F)c2c1 [Compound 144, 5-{7-[2-(ethylamino)ethoxy]-1-fluoro-3-hydroxynaphthalen-2-yl}-1λ^6,2,5-thiadiazolidine-1,1,3-trione] | 1 to 10
O=C1CN(c2c(O)cc3ccc(OCCNCCOC(F)(F)F)cc3c2F)S(=O)(=O)N1 [Compound 137, 5-[1-fluoro-3-hydroxy-7-(2-{[2-(trifluoromethoxy)ethyl]amino}ethoxy)naphthalen-2-yl]-1λ^6,2,5-thiadiazolidine-1,1,3-trione] | 1 to 10
C[C@@H](O)CCOc1ccc2cc(O)c(N3CC(=O)NS3(=O)=O)c(F)c2c1 [Compound 149, 5-{1-fluoro-3-hydroxy-7-[(3R)-3-hydroxybutoxy]naphthalen-2-yl}-1λ^6,2,5-thiadiazolidine-1,1,3-trione] | 1 to 10
O=C1CN(c2c(O)cc3ccc(OCCn4cccn4)cc3c2F)S(=O)(=O)N1 [Compound 188, 5-{1-fluoro-3-hydroxy-7-[2-(1H-pyrazol-1-yl)ethoxy]naphthalen-2-yl}-1λ^6,2,5-thiadiazolidine-1,1,3-trione] | 1 to 10
C[C@H](O)CCCc1ccc2cc(O)c(N3CC(=O)NS3(=O)=O)c(F)c2c1 [Compound 153, 5-{1-fluoro-3-hydroxy-7-[(4S)-4-hydroxypentyl]naphthalen-2-yl}-1λ^6,2,5-thiadiazolidine-1,1,3-trione] | 1 to 10
O=C1CN(c2c(O)cc3ccc(C4CCCO4)cc3c2F)S(=O)(=O)N1 (centres unmarked) [Compound 190] | 1 to 10
COC(=O)[C@@H](N)CCOc1ccc2cc(O)c(N3CC(=O)NS3(=O)=O)c(F)c2c1 [Compound 317, methyl (2S)-2-amino-4-{[8-fluoro-6-hydroxy-7-(1,1,4-trioxo-1λ^6,2,5-thiadiazolidin-2-yl)naphthalen-2-yl]oxy}butanoate] | 1 to 10
COCCS(=O)(=O)N1CC=C(c2ccc3cc(O)c(N4CC(=O)NS4(=O)=O)c(F)c3c2)C1 [Compound 286, 5-{1-fluoro-3-hydroxy-7-[1-(2-methoxyethanesulfonyl)-2,5-dihydro-1H-pyrrol-3-yl]naphthalen-2-yl}-1λ^6,2,5-thiadiazolidine-1,1,3-trione] | < 1
COCc1ccc2cc(O)c(N3CC(=O)NS3(=O)=O)c(F)c2c1 [Compound 229, 5-[1-fluoro-3-hydroxy-7-(methoxymethyl)naphthalen-2-yl]-1λ^6,2,5-thiadiazolidine-1,1,3-trione] | 10 to 100
CCP(=O)(CC)CCCOc1ccc2cc(O)c(N3CC(=O)NS3(=O)=O)c(F)c2c1 [Compound 146, 5-{7-[3-(diethylphosphoryl)propoxy]-1-fluoro-3-hydroxynaphthalen-2-yl}-1λ^6,2,5-thiadiazolidine-1,1,3-trione] | 1 to 10
O=C1CN(c2c(O)cc3ccc(OCC(F)(F)F)cc3c2F)S(=O)(=O)N1 [Compound 197, 5-[1-fluoro-3-hydroxy-7-(2,2,2-trifluoroethoxy)naphthalen-2-yl]-1λ^6,2,5-thiadiazolidine-1,1,3-trione] | 1 to 10
O=C1CN(c2c(O)cc3ccc(C4=CCN(S(=O)(=O)CCCC(F)(F)F)C4)cc3c2F)S(=O)(=O)N1 [Compound 290, 5-{1-fluoro-3-hydroxy-7-[1-(4,4,4-trifluorobutane-1-sulfonyl)-2,5-dihydro-1H-pyrrol-3-yl]naphthalen-2-yl}-1λ^6,2,5-thiadiazolidine-1,1,3-trione] | < 1
CNCCCc1ccc2cc(O)c(N3CC(=O)NS3(=O)=O)c(F)c2c1 [Compound 139, 5-{1-fluoro-3-hydroxy-7-[3-(methylamino)propyl]naphthalen-2-yl}-1λ^6,2,5-thiadiazolidine-1,1,3-trione] | 1 to 10
N#Cc1c[nH]c(-c2ccc3cc(O)c(N4CC(=O)NS4(=O)=O)c(F)c3c2)n1 [Compound 321, 2-[8-fluoro-6-hydroxy-7-(1,1,4-trioxo-1λ^6,2,5-thiadiazolidin-2-yl)naphthalen-2-yl]-1H-imidazole-4-carbonitrile] | 1 to 10
COCC1(CCOc2ccc3cc(O)c(N4CC(=O)NS4(=O)=O)c(F)c3c2)CC1 [Compound 160, 5-(1-fluoro-3-hydroxy-7-{2-[1-(methoxymethyl)cyclopropyl]ethoxy}naphthalen-2-yl)-1λ^6,2,5-thiadiazolidine-1,1,3-trione] | 1 to 10
C=C(c1ccc2cc(O)c(N3CC(=O)NS3(=O)=O)c(F)c2c1)c1c(C)c(C)c(C)c(C)c1C [Compound 241, 5-{1-fluoro-3-hydroxy-7-[1-(pentamethylphenyl)ethenyl]naphthalen-2-yl}-1λ^6,2,5-thiadiazolidine-1,1,3-trione] | > 100
O=C1CN(c2c(O)cc3ccc(C4=CCN(S(=O)(=O)c5ccoc5)C4)cc3c2F)S(=O)(=O)N1 [Compound 312, 5-{1-fluoro-7-[1-(furan-3-sulfonyl)-2,5-dihydro-1H-pyrrol-3-yl]-3-hydroxynaphthalen-2-yl}-1λ^6,2,5-thiadiazolidine-1,1,3-trione] | < 1
O=C1CN(c2c(O)cc3ccc(OCc4cn[nH]c4)cc3c2F)S(=O)(=O)N1 [Compound 133, 5-{1-fluoro-3-hydroxy-7-[(1H-pyrazol-4-yl)methoxy]naphthalen-2-yl}-1λ6,2,5-thiadiazolidine-1,1,3-trione] | 1 to 10
O=C1CN(c2c(O)c(Br)c3ccc(-c4ccn(S(=O)(=O)C5CC5)c4)cc3c2F)S(=O)(=O)N1 [Compound 231B, 5-{4-bromo-7-[1-(cyclopropanesulfonyl)-1H-pyrrol-3-yl]-1-fluoro-3-hydroxynaphthalen-2-yl}-1λ^6,2,5-thiadiazolidine-1,1,3-trione] | 1 to 10
O=C1CN(c2c(O)cc3ccc(C4=CCN(S(=O)(=O)CCC(F)(F)F)C4)cc3c2F)S(=O)(=O)N1 [Compound 287, 5-{1-fluoro-3-hydroxy-7-[1-(3,3,3-trifluoropropane-1-sulfonyl)-2,5-dihydro-1H-pyrrol-3-yl]naphthalen-2-yl}-1λ^6,2,5-thiadiazolidine-1,1,3-trione] | < 1
O=C1CN(c2c(O)cc3ccc(CC4CCN(CC(F)(F)F)C4)cc3c2F)S(=O)(=O)N1 (centres unmarked) [Compound 251, 5-(1-fluoro-3-hydroxy-7-{[1-(2,2,2-trifluoroethyl)pyrrolidin-3-yl]methyl}naphthalen-2-yl)-1λ^6,2,5-thiadiazolidine-1,1,3-trione] | 1 to 10
CC(C)COc1ccc2cc(O)c(N3CC(=O)NS3(=O)=O)c(F)c2c1 [Compound 134, 5-[1-fluoro-3-hydroxy-7-(2-methylpropoxy)naphthalen-2-yl]-1λ^6,2,5-thiadiazolidine-1,1,3-trione] | > 100
O=C1CN(c2c(O)cc3ccc(OCCC4CCCCC4)cc3c2F)S(=O)(=O)N1 [Compound 320, 5-[7-(2-cyclohexylethoxy)-1-fluoro-3-hydroxynaphthalen-2-yl]-1λ^6,2,5-thiadiazolidine-1,1,3-trione] | < 1
